Results as given in article PMC4000009, “Ardisia crispa roots inhibit cyclooxygenase and suppress angiogenesis” (BMC Complementary and Alternative Medicine, 2014).

Tests used:
COX-2 = molecular target: T1, COX-2 (Ovis aries, UniProt P79208); assay: Colorimetric COX (ovine) inhibitor screening assay, COX-2; format: biochemical; conditions: read-out: Percentage of COX inhibition (%) COX-2
T1 construct: purchased Cayman 760111
T1 sequence (P79208 17-603): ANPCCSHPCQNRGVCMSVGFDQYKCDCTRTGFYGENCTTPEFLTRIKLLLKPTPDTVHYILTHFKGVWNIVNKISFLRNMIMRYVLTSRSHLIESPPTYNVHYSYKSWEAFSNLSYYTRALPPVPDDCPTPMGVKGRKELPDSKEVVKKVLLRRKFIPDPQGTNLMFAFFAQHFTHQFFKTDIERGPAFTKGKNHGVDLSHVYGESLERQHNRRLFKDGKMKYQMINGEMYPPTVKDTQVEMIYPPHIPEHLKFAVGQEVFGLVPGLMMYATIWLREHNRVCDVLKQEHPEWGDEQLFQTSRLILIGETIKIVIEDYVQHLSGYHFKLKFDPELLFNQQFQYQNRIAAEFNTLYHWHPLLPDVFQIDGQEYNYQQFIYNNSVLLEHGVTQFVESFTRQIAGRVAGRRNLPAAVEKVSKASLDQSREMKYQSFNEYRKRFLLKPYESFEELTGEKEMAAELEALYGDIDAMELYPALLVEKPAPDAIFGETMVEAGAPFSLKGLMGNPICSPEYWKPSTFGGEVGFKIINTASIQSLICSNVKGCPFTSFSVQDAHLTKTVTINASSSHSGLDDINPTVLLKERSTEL
Protocol: (§1) Cyclooxygenase activity assay was performed according to Yang et al., with slight modification. […] The assay was conducted by monitoring the appearance of oxidized N, N, N’, N’- tetramethyl-p-phenediamine (TMPD) at […]. […] The plate was shaken for a few seconds and incubated for 5 min at 25°C. 20 μl of the colorimetric substrate solution (TMPD) was added to all of the wells. 20 μl of arachidonic acid was added to all the wells. The plate was shaken for a few seconds and incubated for 5 min at 25°C. The absorbance was measured at 590 nm using a microplate reader. Average absorbance was calculated for all the samples (n = 3) in order to determine the percentage of inhibition. The calculation of inhibitory percentage is as portrayed below:
(§2) %inhibition=100%initialactivity‒inhibitorwells/100%initialactivity×100
(§3) In mouse sponge implantation assay, statistical analysis was performed using SPSS version 16. One-way Analysis of Variance (ANOVA) with post-hoc test of Least Significant Difference (LSD) were utilised with P < 0.05 was considered to be statistically significant. The results were reported as mean ± SEM. For in vitro studies, average of the results obtained was determined in order to construct a graph, whereby IC50 of each groups were identified, respectively. IC50 was calculated using GraphPad Prism 5 software. Data were reported as mean ± SEM.

COX-1 = molecular target: T2, COX-1 (Ovis aries, UniProt P05979); assay: Colorimetric COX (ovine) inhibitor screening assay, COX-1; format: biochemical; conditions: n = 3
T2 construct: purchased Cayman 760111
T2 sequence (P05979 25-600): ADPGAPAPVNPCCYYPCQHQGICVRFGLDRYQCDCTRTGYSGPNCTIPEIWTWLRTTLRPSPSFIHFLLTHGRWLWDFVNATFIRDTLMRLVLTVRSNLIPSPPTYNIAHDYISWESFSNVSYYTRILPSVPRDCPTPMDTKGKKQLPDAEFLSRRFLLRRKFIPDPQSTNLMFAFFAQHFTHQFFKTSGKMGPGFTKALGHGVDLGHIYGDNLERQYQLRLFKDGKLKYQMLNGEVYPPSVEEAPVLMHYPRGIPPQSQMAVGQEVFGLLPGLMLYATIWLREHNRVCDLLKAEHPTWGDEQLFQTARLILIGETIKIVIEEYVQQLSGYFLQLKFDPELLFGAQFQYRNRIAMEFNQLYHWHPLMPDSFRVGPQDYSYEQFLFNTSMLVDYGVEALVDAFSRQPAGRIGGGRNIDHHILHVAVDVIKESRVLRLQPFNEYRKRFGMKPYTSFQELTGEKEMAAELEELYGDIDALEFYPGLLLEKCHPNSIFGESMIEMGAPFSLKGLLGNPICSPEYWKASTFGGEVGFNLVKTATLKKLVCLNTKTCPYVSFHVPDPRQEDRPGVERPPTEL
Protocol: as §1, §2, §3

[1] = molecular target: T3, Soybean lipoxygenase type I-B (Glycine max, UniProt P08170); assay: Soy lipoxygenase inhibitory assay; format: biochemical
T3 construct: purchased Sigma Aldrich
T3 sequence (P08170 1-839): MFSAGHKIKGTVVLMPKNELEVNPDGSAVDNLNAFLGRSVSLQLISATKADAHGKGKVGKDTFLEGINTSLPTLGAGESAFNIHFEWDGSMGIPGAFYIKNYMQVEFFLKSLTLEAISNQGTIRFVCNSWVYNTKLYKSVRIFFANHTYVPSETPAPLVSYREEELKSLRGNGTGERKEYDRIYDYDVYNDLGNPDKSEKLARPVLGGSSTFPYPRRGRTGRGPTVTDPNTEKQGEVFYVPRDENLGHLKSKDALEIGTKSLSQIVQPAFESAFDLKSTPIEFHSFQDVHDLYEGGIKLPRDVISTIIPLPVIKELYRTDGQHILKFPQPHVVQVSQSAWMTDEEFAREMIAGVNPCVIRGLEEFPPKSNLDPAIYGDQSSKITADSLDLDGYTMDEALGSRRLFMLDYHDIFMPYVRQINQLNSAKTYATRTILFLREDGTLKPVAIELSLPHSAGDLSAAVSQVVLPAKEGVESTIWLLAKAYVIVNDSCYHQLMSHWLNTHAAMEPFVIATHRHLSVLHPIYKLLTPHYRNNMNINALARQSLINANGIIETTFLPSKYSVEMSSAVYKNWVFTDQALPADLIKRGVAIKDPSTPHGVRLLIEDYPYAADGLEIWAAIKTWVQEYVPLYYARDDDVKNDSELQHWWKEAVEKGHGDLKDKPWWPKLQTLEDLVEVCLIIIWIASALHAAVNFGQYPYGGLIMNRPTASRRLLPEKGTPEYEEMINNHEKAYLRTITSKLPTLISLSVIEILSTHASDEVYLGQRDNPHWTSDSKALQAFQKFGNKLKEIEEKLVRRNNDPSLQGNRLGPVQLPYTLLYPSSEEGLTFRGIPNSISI
Protocol: Soy lipoxygenase inhibitory assay was performed according to the method proposed by Azhar-Ul-Haq et al.. Rutin was used as positive control. 160 μl of 100 mM sodium phosphate buffer (pH8.0), 10 μl of ACRH and QRF were dissolved in ethanol in different concentrations (200 μg/mL, 100 μg/mL, 50 μg/mL, 25 μg/mL, and 12.5 μg/mL) and 20 μl of lipoxygenase solution were mixed in the well and incubated for 10 mins at room temperature. The reaction was then initiated by adding 10 μl of linoleic solution and the absorbance was determined at 234 nm after 6 minutes. All concentrations were performed in triplicate. The IC50 value was then calculated.
as §3

[2] = system: VEGF-induced blood vessel formation; assay: Mouse sponge implantation assay (VEGF-impregnated gelatin sponge, mean vascular density); format: in vivo; conditions: 100 ng treatment in VEGF sponge, 14 days; relative to VEGF group
Protocol: Prior to experimentation, absorbable gelatin sponge was cut (5 mm × 8 mm) and hydrated in sterile PBS overnight at 4°C. […] The sponges were allowed to solidify at room temperature for one hour before commencement of the experiment. Mice were anesthetized with Avertin (10 mL/kg) prior to experimentation. Hardened gel piece was inserted into incised subcutaneous pocket created laterally. The animals were allowed to recuperate for 14 days. After that, the animals were euthanized and the gel piece was harvested and rinsed with normal saline.
The sponge samples were fixed in 10% formalin (v/v) for 7 days and subjected to histopathological analysis. The number of vessels was counted in 15 consecutive fields using a 20X objective and the mean MVD was calculated [19].
In mouse sponge implantation assay, statistical analysis was performed using SPSS version 16. One-way Analysis of Variance (ANOVA) with post-hoc test of Least Significant Difference (LSD) were utilised with P < 0.05 was considered to be statistically significant. The results were reported as mean ± SEM. […] Data were reported as mean ± SEM.

Row | Compound | inhibition at 12.5 µg/mL (COX-2) | inhibition at 25 µg/mL (COX-2) | inhibition at 50 µg/mL (COX-2) | inhibition at 100 µg/mL (COX-2) | inhibition at 200 µg/mL (COX-2) | Percentage of COX inhibition (%) COX-1 (COX-1; 12.5 μg/ml) | Percentage of COX inhibition (%) COX-1 (COX-1; 25 μg/ml) | Percentage of COX inhibition (%) COX-1 (COX-1; 50 μg/ml) | Percentage of COX inhibition (%) COX-1 (COX-1; 100 μg/ml) | Percentage of COX inhibition (%) COX-1 (COX-1; 200 μg/ml) | IC50 [1] | % inhibition (of MVD) [2]
1 | CC(=O)Oc1ccccc1C(=O)O [Aspirin] | 33.9 ± 1.07% | 51.38 ± 0.154% | 54.29 ± 0.307% | 59.05 ± 0.153% | 62.42 ± 0.154% | 27.778 ± 0.505% | 36.027 ± 1.347% | 37.879 ± 0.842% | 40.067 ± 1.347% | 46.465 ± 0.505% | 763 µM | –
2 | C[C@@H]1O[C@@H](OC[C@H]2O[C@@H](Oc3c(-c4ccc(O)c(O)c4)oc4cc(O)cc(O)c4c3=O)[C@H](O)[C@@H](O)[C@@H]2O)[C@H](O)[C@H](O)[C@H]1O [Rutin] | – | – | – | – | – | – | – | – | – | – | 72.7 µM | –
3 | CC1(C)Cc2c(-c3ccccc3)c(-c3ccc(Cl)cc3)c(CC(=O)O)n2C1 [licofelone] | – | – | – | – | – | – | – | – | – | – | – | 67.14%
